{
  "source": "patent US20250179437A1",
  "about": "“L[…] FOR PRODUCING PRIMITIVE STREAK CELLS” (UNIVERSITY HEALTH NETWORK, priority 2023, published 2025)",
  "type_in_all_cases": "cell-based, human",
  "key": {"H1 hPSC line [1]": {"test_system": "H1 hPSC line", "test": "Differentiation of hPSCs into primitive streak and definitive endoderm with or without Latrunculin A (flow cytometry)", "from_the_text": "Human pluripotent stem cell (hPSC) lines: For protocol optimization, the H1 hPSC line^1, purchased from WiCell Research Institute (Madison, USA) was employed. This work has received approval from the Stem Cell Oversight Committee (SCOC) as the focus of a Canadian Institutes of Health Research (CIHR) Canada Graduate Scholarship-Doctoral (CGS-D) award.\nhPSC expansion and passage: Cells were cryopreserved in a media composed of 50% IMDM (Life Technologies #12440) or StemMACS iPS-brew XF (Miltenyi Biotec #130-104-368), 40% Fetal Bovine Serum (FBS, Gibco #12483-020), and 10% DMSO (Millipore Sigma #D2650). Cryopreserved hPSCs were thawed in DMEM:F12 (Wisent #319-085-CL) at a ratio of 1 mL cells: 9 mL media, centrifuged at 1000 revolutions per minute (RPM) for 5 minutes, and resuspended in StemMACS iPS-brew XF with 10 μM ROCK1/2 inhibitor (Y-27652, Tocris Biosciences #1254). Cells were maintained in monolayer culture in StemMACS iPS-brew XF media with daily media changes. Upon reaching full confluency, cells were passaged by single cell dissociation using TrypLE (Life Technologies #12605) with 1% DNase 1 mg/mL (Calbiochem 260913), centrifuged for 5 min at 1000 RPM, and resuspended in StemMACS iPS-brew XF with 10 μM ROCK1/2 inhibitor (Y-27652, Tocris Biosciences #1254). Cells were split at a cell line-specific ratio to ensure confluency within 2-3 days, upon which differentiation was initiated.\nhPSC differentiation: On day 0, confluent cultures of hPSCs in monolayer format were washed with Calcium- and Magnesium-free dPBS (Corning #20-031-CV) and fed with media with or without Latrunculin A to generate primitive streak (day 1) and definitive endoderm (day 3). The media used at day 0, 1, and 2 are specified in the tables below (Tables 1.1-1.2). When reagents were obtained from suppliers as liquids, the concentration is provided as a percentage of reagent volume/base media volume. When reagents were provided as desiccated powders that required reconstitution, the concentration is specified in either mass or molarity per unit volume of fully reconstituted media. All media were supplemented with 1% vol/vol Gibco Penicillin-Streptomycin (ThermoFisher Scientific #15070063). […]\nDissociated cells in suspension culture were filtered through a 35 micrometer cell strainer, centrifuged, and the supernatant was discarded. […] Cells were analyzed on a BD LSRFortessa flow cytometer. […] Experimental data was analyzed using FlowJo Software (BD).\nCell-surface flow cytometry of hPSC-derived cells: Dissociated cells were directly incubated with directly conjugated primary antibodies (table 1.3) in staining buffer for 20 minutes at room temperature. Cells were then washed once, and resuspended in staining buffer containing 1:100,000 DAPI (Biotium #40043) and directly analyzed by flow cytometry. […]"}, "H1 hPSC line [2]": {"test_system": "H1 hPSC line", "test": "Differentiation of hPSC-derived definitive endoderm to pancreatic progenitors and beta-like cells (flow cytometry)", "from_the_text": "(§1) hPSC differentiation: On day 0, confluent cultures of hPSCs in monolayer format were washed with Calcium- and Magnesium-free dPBS (Corning #20-031-CV) and fed with media with or without Latrunculin A to generate primitive streak (day 1) and definitive endoderm (day 3). The media used at day 0, 1, and 2 are specified in the tables below (Tables 1.1-1.2). When reagents were obtained from suppliers as liquids, the concentration is provided as a percentage of reagent volume/base media volume. When reagents were provided as desiccated powders that required reconstitution, the concentration is specified in either mass or molarity per unit volume of fully reconstituted media. All media were supplemented with 1% vol/vol Gibco Penicillin-Streptomycin (ThermoFisher Scientific #15070063).\n(§2) Following definitive endoderm formation, cells were treated with differentiation media to generate either pancreatic or lung cells.\nIn an embodiment, the method comprises steps for differentiate the endodermal cell population to pancreatic cells. For example, as described herein differentiation from a an endodermal cell at day 3 differentiation to pancreatic lineages involves a series of steps that will differentiate cells to pancreatic progenitors cells at day 12-13 as described by Nostro et al 2015^2 or Yung and Poon 2019^3 and endocrine cells from day 20 onwards as described by Rezania et al 20144, Pagliuca et al., 2014^5, Hogrebe et al. 2020^6 or Balboa et al., 2022^7, where typically stage 1 is known to generate definitive endoderm, stage 4 is known to generate pancreatic progenitors and stage 6 is known to generate islet-like cells. Stage 2 can span for example 2 to 3 days and stage 3 can span for example 1 to 4 days. Stage 2 for example can include contacting the population to be differentiated (e.g. the Stage 1 endoderm cells) with Fibroblast Growth Factor 10 (FGF10), optionally wingless-type MMTV integration site family member 3A (Wnt3a), optionally Retinoic acid (RA), optionally Activin A, and optionally Dorsomorphin to produce Stage 2 differentiated cells. […]"}, "H1 hPSC line [3]": {"test_system": "H1 hPSC line", "test": "Differentiation of hPSC-derived definitive endoderm to NKX2-1+ lung progenitors (flow cytometry, immunofluorescence)", "details": "vs definitive endoderm generated in the absence of LatA", "from_the_text": "as §1, §2\nIn an embodiment, the method comprises steps for differentiate the endodermal cell population to lung cells. […]\nDissociated cells in suspension culture were filtered through a 35 micrometer cell strainer, centrifuged, and the supernatant was discarded. […] Cells were analyzed on a BD LSRFortessa flow cytometer. […] Experimental data was analyzed using FlowJo Software (BD). […]"}, "[4]": {"details": "day 13, vs control without LatA"}},
  "data": [
    {"smiles": "C/C1=C/C(=O)O[C@@H]2C[C@@H](CC[C@H](C)/C=C\\C=C\\CC1)O[C@@](O)([C@@H]1CSC(=O)N1)C2", "note": "[Latrunculin A]", "values": [
      {"measurement": "efficiency of primitive streak cell generation", "setting": "H1 hPSC line [1]; Latrunculin A-treated hPSCs", "value": "high efficiencies"},
      {"measurement": "BRA+ primitive streak cells generated", "setting": "H1 hPSC line [1]; high-density hPSCs, MEF-free, LatA at day 0, 24 hours after starting differentiation", "value": "nearly pure populations"},
      {"measurement": "frequency of FOXA2+SOX17+ definitive endoderm (DE)-like cells", "setting": "H1 hPSC line [1]; high-density hPSCs, day 3 of differentiation, vs control without LatA", "value": "significantly higher frequencies"},
      {"measurement": "impairment of high-density cells in their ability to generate BRA+ cells", "setting": "H1 hPSC line [1]; high-density vs low-density hPSCs, LatA treatment at day 0", "value": "completely abrogated"},
      {"measurement": "PDX1−NKX6-1− cells", "setting": "H1 hPSC line [2]; [4]", "value": "greatly reduced"},
      {"measurement": "frequency of PDX1+NKX6.1+ hPSC-derived pancreatic progenitors", "setting": "H1 hPSC line [2]; [4]", "value": "greater frequency"},
      {"measurement": "frequency of NKX6-1+CPEP+ beta-like cells", "setting": "H1 hPSC line [2]; day 23 of differentiation, vs control protocol", "value": "greater frequency"},
      {"measurement": "frequency of NKX2-1+ lung progenitors", "setting": "H1 hPSC line [3]", "value": "much higher frequencies"}
    ]}
  ]
}
